In patent US9339454B2, “Skin whitening agent” (Kao Corporation, priority 2011, dated 2016):

Target: T1, dopa oxidase (Homo sapiens, UniProt P14679)
T1 sequence (P14679 19-529): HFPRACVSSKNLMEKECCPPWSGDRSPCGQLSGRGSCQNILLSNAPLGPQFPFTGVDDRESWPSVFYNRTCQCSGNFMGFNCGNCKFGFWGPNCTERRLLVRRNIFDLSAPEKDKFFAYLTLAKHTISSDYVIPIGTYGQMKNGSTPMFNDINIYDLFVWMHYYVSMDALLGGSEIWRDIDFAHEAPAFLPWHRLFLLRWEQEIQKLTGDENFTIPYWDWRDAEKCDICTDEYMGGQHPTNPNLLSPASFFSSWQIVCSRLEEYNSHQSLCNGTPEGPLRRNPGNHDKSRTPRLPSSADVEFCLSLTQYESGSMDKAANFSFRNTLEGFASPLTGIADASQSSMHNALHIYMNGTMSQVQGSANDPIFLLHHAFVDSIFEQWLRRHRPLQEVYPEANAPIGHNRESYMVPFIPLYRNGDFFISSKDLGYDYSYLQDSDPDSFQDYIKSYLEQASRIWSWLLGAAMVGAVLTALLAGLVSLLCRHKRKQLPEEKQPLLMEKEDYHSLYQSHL
Experiment: Dopa oxidase activity in cultured melanocytes (MBTH method)
Type: cell-based
Details: for Dopa oxidase activity of fractions, result in words: activity-guided fractionation of haguro-so 50% ethanol extract, same procedure as Example 1; for inhibition at 0.1 µM: evaluation concentration 0.1 μM; for inhibition at 0.1 µM / inhibition at 0.5 µM / inhibition at 1 µM: relative to control, read-out: Dopa oxidase inhibitory rate (%); for inhibition at 0.5 µM: evaluation concentration 0.5 μM; for inhibition at 1 µM: evaluation concentration 1.0 μM
Procedure: Normal human neonatal epidermal melanocytes (NHEMs; KURABO INDUSTRIES, LTD.) were seeded in a 96-well plates at a density of 1×10^4 cells/well ([…]) and cultured at 37° C. under a 5% CO2. Cells were maintained in Medium 254 (KURABO INDUSTRIES, LTD.) containing growth supplement (HMGS) without PMA.
After 3-day culture, the haguro-so extracts (water extract, 50% ethanol extract, or 95% ethanol extract) prepared in accordance with the above Production Examples 1 to 3 and having an evaporation residue of 1.0 w/v % were each added to give a final concentration shown in Table 1 together with Endothelin-1 (ET-1), SCF, α-MSH, Histamine, and PGE2 adjusted to have a final concentration of 1 nM in each medium, and cultured under the conditions of 37° C. and a 5% CO2 for 3 days. For a control, an ethanol aqueous solution (10%, 50%, or 95%) of the equal amount was added.
After completion of culture, Alamar Blue (Invitrogen) reagent was added in an amount of 20 μL/well and incubated for 2 to 3 hours, followed by measuring the fluorescence intensity of the medium to measure the cellular respiration activity. […] The dopa oxidase activity was measured by the following method with reference to the MBTH method (Winder A. et al., 1991, Eur. J. Biochem. 198: 317-326).
To each of the wells containing the solubilized cell solution, 80 μL of the above assay buffer, 60 μL of 20.7 mM MBTH (3-methyl-2-benzothiazolinon hydrazone) solution, and 40 μL of 5 mM L-dopa(L-dihydroxyphenylalanine) solution as a substrate were added, reacted at 37° C. for 30 to 60 minutes, thereby measuring the color reaction thereof at 490 nm absorbance (N=3). The measured values were shown in the relative value to the result of the control.
Normal human neonatal epidermal melanocytes (NHEMs; KURABO INDUSTRIES, LTD.) were inoculated in a 96-well plate in a cell density of 1×10^4 cells/well (100 μL/well) and cultured at 37° C. under a 5% CO2. The medium used was Medium 254 containing PMA(−) growth supplement (HMGS).
After 3-day culture, each of the compounds shown in Table 4 was added to give final concentrations shown in the same Table, together with Endothelin-1 (ET-1), SCF, α-MSH, Histamine, and PGE2 adjusted to give a final concentration of 1 nM in each medium, and cultured under the conditions of 37° C. and a 5% CO2 for 3 days. For a control, a DMSO solution of the equal amount was added.
After completion of the culture, Alamar Blue (Invitrogen) reagent was added in an amount of 20 μL/well and incubated for 2 to 3 hours, followed by measuring the fluorescence intensity of the medium to measure the cellular respiration activity. […] The dopa oxidase activity was measured by the following method with reference to the MBTH method (Winder A. et al., Eur. J. Biochem., 1991, 198: 317-326).
To each of the wells containing the solubilized cell solution, 80 μL of the above assay buffer, 60 μL of 20.7 mM MBTH (3-methyl-2-benzothiazolinon hydrazone) solution and 40 μL of 5 mM L-dopa (L-dihydroxyphenylalanine) solution as a substrate were added, reacted at 37° C. for 30 to 60 minutes, thereby measuring the color reaction thereof at 490 nm absorbance (N=3).

Structure (SMILES)	Dopa oxidase activity of fractions, result in words	inhibition at 0.1 µM (NHEMs, 3 days) [%]	inhibition at 0.5 µM (NHEMs, 3 days) [%]	inhibition at 1 µM (NHEMs, 3 days) [%]	Dopa oxidase inhibitory rate (%) (evaluation concentration printed 0.1 μM as third concentration after 0.1 and 0.5, NHEMs, 3 days)
COc1cc2cc3c(c(-c4ccc5c(c4)OCO5)c2cc1OC)C(=O)OC3 [Compound 2, Justicidin B]	found	10	30	50	–
COc1c2c(c(-c3ccc4c(c3)OCO4)c3cc4c(cc13)OCO4)C(=O)OC2 [Compound 7, Justicidin F]	–	20	–	–	–
COc1cc2c(OC(C)=O)c3c(c(-c4ccc5c(c4)OCO5)c2cc1OC)C(=O)OC3 [Compound 6, 4-acetoxy-6,7-dimethoxy-9-(1,3-benzodioxol-5-yl)naphtho[2,3-c]furan-1(3H)-one]	–	–	40	50	–
COc1cc2c(O[C@H]3OCC(O)(CO)C3O)c3c(c(-c4ccc5c(c4)OCO5)c2cc1OC)C(=O)OC3 (stereo partly shown) [Compound 3, Tuberculatin]	found	45	50	70	–
COc1cc2c(OC)c3c(c(-c4ccc5c(c4)OCO5)c2cc1OC)C(=O)OC3 [Compound 1, Justicidin A]	found	20	50	–	55
CCOc1c2c(c(-c3ccc4c(c3)OCO4)c3cc(OC)c(OC)cc13)C(=O)OC2 [Compound 5, 4-Ethoxy-6,7-dimethoxy-9-(1,3-benzodioxol-5-yl)naphtho[2,3-c]furan-1(3H)-one]	–	40	60	–	–
COc1cc2c(O)c3c(c(-c4ccc5c(c4)OCO5)c2cc1OC)C(=O)OC3 [Compound 4, Diphyllin]	–	–	20	40	–
